Assay results taken from patent US4046762A, “Esters and amides of 3-aryl-1,4 benzodioxan-2-carboxylic acids” (Instituto Luso Farmaco D'Italia S.r.l., priority 1972, dated 1977).
Where a name gives a salt, the structure may show the parent alone.

Assays:
[1] = Indicative acute toxicity, mouse (intraperitoneally); conditions: in vivo, ip, read-out: Indicative acute toxicity, DL50
[2] = system: Stretching from acetic acid; assay: Stretching from acetic acid; assay type: in vivo; conditions: for ED50: read-out: Stretching from acetic acid, DE50
Oedema from charragenin = assay: Oedema from charragenin, rat; assay type: in vivo; conditions: i.p.
Antituxive activity = assay: Antituxive activity; assay type: in vivo; conditions: for ED50: read-out: Antituxive activity, DE50
ileum of Guinea pig = assay: Antihystaminic activity, ileum of Guinea pig; conditions: Cavia porcellus, 10 γ/ml
tail of mouse = assay: Local anaesthetic activity, tail of mouse; assay type: in vivo
sciatic nerve of rat = assay: Local anaesthetic activity, sciatic nerve of rat
central nervous system [3] = assay: Activity on central nervous system, mouse: depression of spontaneous motility; assay type: in vivo; conditions: orally
Antipyresis = assay: Antipyresis, rat; assay type: in vivo; conditions: 65 mg/kg
central nervous system [4] = assay: Activity on central nervous system, mouse: Catalepsy (haloperidol); assay type: in vivo; conditions: orally, 15 mg/kg
central nervous system [5] = assay: Activity on central nervous system, mouse: Potentiation of barbituric hypnosis; assay type: in vivo; conditions: orally, 15 mg/kg
central nervous system [6] = assay: Activity on central nervous system, mouse: Stereotipy (apomorphine); assay type: in vivo; conditions: orally, 40 mg/kg
central nervous system [7] = assay: Activity on central nervous system, mouse: Stereotipy (amphetamine); assay type: in vivo; conditions: orally, 180 mg/kg
Arrhytmia CaCl2 = Arrhytmia CaCl2 - rat; assay type: in vivo; conditions: intravenously, 7.5 mg/kg

Structure (SMILES): O=C(OCCOCCN1CCOCC1)C1Oc2ccccc2OC1c1ccccc1 (stereo not drawn) [LR 348, morpholinoethoxyethyl (3-phenyl-1,4-benzodioxan-2-yl)-carboxylate,hydrochloride]
- LD50 [1]: 250 mg/kg
- ED50 [2]: 15.6 mg/kg
- Oedema from charragenin, % (Oedema from charragenin; 50 mg/kg): 40%
- ED50 (Antituxive activity): 50 mg/kg
- inhibition at 10 µg/mL (ileum of Guinea pig): 60%
- Local anaesthetic activity, tail of mouse, DE50 (tail of mouse): 2.70 mg/mL
- Local anaesthetic activity, sciatic nerve of rat, DE50 (sciatic nerve of rat): 12.2 mg/mL

Structure (SMILES): CCN(CC)CCOCCOC(=O)C1Oc2ccccc2OC1c1ccccc1 (stereo not drawn) [LR 349, n,n-diethylaminoethoxyethyl (3-phenyl-1,4-benzodioxan-2-yl)-carboxylate, citrate]
- LD50 [1]: 200 mg/kg
- Stretching from acetic acid, % ([2]; 10 mg/kg): 20%
- Oedema from charragenin, % (Oedema from charragenin; 50 mg/kg): 50%
- ED50 (Antituxive activity): 39.5 mg/kg
- Local anaesthetic activity, tail of mouse, DE50 (tail of mouse): 2.85 mg/mL
- Local anaesthetic activity, sciatic nerve of rat, DE50 (sciatic nerve of rat): 11.2 mg/mL

Structure (SMILES): CC(C)NC(=O)C1Oc2ccccc2OC1c1ccccc1 (stereo not drawn) [LR 367, n-(3-phenyl-1,4-benzodioxan-2-ylcarbonyl)-isopropylamine]
- LD50 [1]: > 3000 mg/kg
- ED50 [2]: 138 mg/kg
- Oedema from charragenin, % (Oedema from charragenin; 200 mg/kg): 30%
- ED50 (Antituxive activity): 86 mg/kg
- depression of spontaneous motility, % (central nervous system [3]; 150 mg/kg): 32%

Structure (SMILES): O=C(C1Oc2ccccc2OC1c1ccccc1)N1CCN(c2ccccc2)CC1 (stereo not drawn) [LR 394, n'-phenyl-N-(3-phenyl-1,4-benzodioxan-2-ylcarbonyl)-piperazine.H2 0]
- LD50 [1]: 330 mg/kg
- ED50 [2]: 22 mg/kg
- Oedema from charragenin, % (Oedema from charragenin; 42 mg/kg): 50%
- Antipyresis, % (Antipyresis): 100%
- Antituxive activity, % (Antituxive activity; 10 mg/kg): 64%
- ED50 (central nervous system [3]; po, read-out: depression of spontaneous motility, DE50): 33.5 mg/kg

Structure (SMILES): CCN(CC)CCNC(=O)C1Oc2ccccc2OC1c1ccccc1 (stereo not drawn) [LR 510, n-(n',n'-diethylaminoethyl)-(3-phenyl-1,4-benzodioxan-2-ylcarbonyl)-amine]
- LD50 [1]: 75 mg/kg
- Catalepsy (haloperidol), % (central nervous system [4]): 33%
- Potentiation of barbituric hypnosis, % (central nervous system [5]): 20%

Structure (SMILES): O=C(NO)C1Oc2ccccc2OC1c1ccccc1 (stereo not drawn) [LR 518, (3-phenyl-1,4-benzodioxan-2-yl)-carbohydroxamic acid]
- LD50 [1]: 175 mg/kg
- Oedema from charragenin, % (Oedema from charragenin; 40 mg/kg): 12%
- Stereotipy (apomorphine), % (central nervous system [6]): 30%

Structure (SMILES): O=C(C1Oc2ccccc2OC1c1ccccc1)N1CCOCC1 (stereo not drawn) [LR 519, n-(3-phenyl-1,4-benzodioxan-2-ylcarbonyl)-morpholine]
- LD50 [1]: 750 mg/kg
- Oedema from charragenin, % (Oedema from charragenin; 180 mg/kg): 15%
- Stereotipy (amphetamine), % (central nervous system [7]): 20%

Structure (SMILES): CCN(CC)CCOC(=O)C1Oc2ccccc2OC1c1ccccc1 (stereo not drawn) [LR 520, n,n-diethylaminoethyl (3-phenyl-1,4-benzodioxan-2-yl)-carboxylate,citrate]
- LD50 [1]: 300 mg/kg
- Oedema from charragenin, % (Oedema from charragenin; 60 mg/kg): 9%
- Arrhytmia CaCl2 (Arrhytmia CaCl2): 40
